This is an account of results in US9803002B2, “Anti-wall teichoic antibodies and conjugates” (Genentech, Inc., priority 2013, dated 2017).

The test system of data set [1] is Wood46 strain of S. aureus. As to the kind of experiment: Macrophage intracellular killing assay with opsonized, washed bacteria. Format: cell-based, Staphylococcus aureus. To be noted: 10 μg/mL or 0.5 μg/mL. How it is done:
The Wood46 strain of S. aureus was incubated with 10 μg/mL or 0.5 μg/mL of S4497 antibody, Isotype control-AAC containing a cathepsin B cleavable linker, thio-trastuzumab HC A118C-MC-vc-PAB-(dimethyl-pipBOR) AAC-101, thio-S4497 HC WT (v8), LC V205C-MC-vc-PAB-(dimethylpipBOR) AAC-192, Isotype control-AAC containing a staphopain cleavable linker, thio-trastuzumab HC […]-MP-LAFG-PABC-(piperazinoBOR) (“core peptide” disclosed as SEQ ID NO: 128) or thio-S4497 HC v1-MP-LAFG-PABC-(piperazinoBOR) (“core peptide” disclosed as SEQ ID NO: 128) AAC-193 for 1 hour to permit binding of the AAC to bacteria (FIG. 32). To limit non-specific binding of the AAC, the opsonized bacteria were centrifuged, washed once and resuspended in buffer before being fed to murine macrophages. […] Antibody-antibiotic conjugate, thio-54497 LC v8-MP-LAFG-PABC-(piperazinoBOR) (“core peptide” disclosed as SEQ ID NO: 128)AAC-215 is efficacious in vivo in a MRSA infection model: […]

In data set [2] the test system is MRSA (NRS384 strain of USA300). Put plainly: MIC determinations for extracellular bacteria. To be noted: Staphylococcus aureus, read-out: Extracellular MRSA MIC.
Protocol: Dilutions of the antibiotic were made in quadruplicate in 96 well culture dishes. MRSA (NRS384 strain of USA300) was taken from an exponentially growing culture and diluted to 1×10^4 CFU/mL. Bacteria was cultured in the presence of antibiotic for 18-24 hours with shaking at 37° C. and bacterial growth was determined by reading the Optical Density (OD) at 630 nM. The MIC was determined to be the dose of antibiotic that inhibited bacterial growth by >90%.
Data set [3] concerns MRSA. To be noted: TSB media; vancomycin 2 and 20 μg/mL, rifampin 0.02 and 0.2 μg/mL.
Data set [4] has as its system USA300. As to the kind of experiment: Pre-treatment in intravenous infection model in Balb/c mice. The format is in vivo, mouse. To be noted: antibodies 50 mg/Kg IV 30 minutes prior to infection; vancomycin 110 mg/Kg twice daily IP; day 4. How it is done:
Balb/c mice were given a single dose of vehicle control (PBS) or 50 mg/Kg of antibodies by intravenous injection 30 minutes prior to infection with 2×10^7 CFU of USA300. […] Control mice were given twice daily treatments with 110 mg/Kg of vancomycin by intraperitoneal injection (Vanco). All mice were sacrificed on day 4 post-infection, and the total number of surviving bacteria in kidneys (2 kidneys pooled) was determined by plating.
(§1) 7 week old female mice were used for all in vivo experiments and infections were carried out by intravenous injection into the tail vein. A/J mice (Jackson Lab) were infected with a dose of 2×10^6 CFU. […] For studies examining the role of competing human IgG (SCID IVIG model), CB17.SCID mice (Charles River Laboratories, Hollister, Calif.) were reconstituted with GammaGard S/D IGIV Immune Globulin (ASD Healthcare, Brooks Ky.) using a dosing regimen optimized to achieve constant serum levels of >10 mg/mL of human IgG. IGIV was administered with an initial intravenous dose of 30 mg per mouse followed by a second dose of 15 mg/mouse by intraperitoneal injection after 6 hours, and subsequent daily dosings of 15 mg per mouse by intraperitoneal injection for 3 consecutive days. Mice were infected 4 hours after the first dose of IGIV with 2×10^7 CFU of MRSA diluted in phosphate buffered saline by intravenous injection. […]

Data set [5] concerns MRSA (USA300). Put plainly: Intravenous infection model in CB17.SCID mice reconstituted with human IgG. Format: in vivo, mouse. The procedure: To confirm that the AAC would be effective in the presence of competing human antibodies in vivo, the in vivo infection model was modified to generate mice that express normal levels of human IgG in the serum. […] Four days after infection the bacterial load in the kidneys (FIG. 10C) was assessed.
Efficacy of the AAC was compared with that of treatment with vancomycin, the current standard of care treatment for MRSA infections. […] CB17.SCID mice were reconstituted with human IgG using a dosing regimen optimized to yield constant levels of at least 10 mg/mL of human IgG in serum.
as §1, with “days.” for “days. Mice were infected 4 hours after the first dose of IGIV with 2×10^7 CFU of MRSA diluted in phosphate buffered saline by intravenous injection.”

For data set [6], the system named is MRSA. As to the kind of experiment: Transfer of infection from peritoneal cells to MG63 osteoblasts in the presence of vancomycin. The format is cell-based, Staphylococcus aureus. To be noted: 5 μg/mL of vancomycin. How it is done: 6-8 week old female A/J mice (JAX™ Mice, Jackson Laboratories) were infected with 1×10^8 CFU of the NRS384 strain of USA300 by peritoneal injection. […] Peritoneal cells were then washed 2× in ice cold HB buffer. […] Free MRSA from the primary infection was stored overnight at 4° C. in Phosphate Buffered Saline Solution as a control for extracellular bacteria that were not subject to neutrophil killing.
Osteoblasts were plated in 24 well tissue culture plates and cultured to obtain a confluent layer. On the day of the experiment, the osteoblasts were washed once in RPMI (without supplements). MRSA or infected peritoneal cells were diluted in complete RPMI-10 and vancomycin was added at 5 μg/mL immediately prior to infection. Peritoneal cells were added to the osteoblasts at 1×10^6 peritoneal cells/mL. A sample of the cells was lysed with 0.1% triton-x to determine the actual concentration of live intracellular bacteria at the time of infection.
To generate a pool of intracellular S. aureus, A/J mice were infected with MRSA and infected peritoneal cells were taken 1 day post infection. […] The total number of surviving intracellular bacteria in each well was determined by plating cell lysates on agar plates. […]

The conditions of data set [7]: clinically achievable serum levels; cited from earlier work.
For data set [8], the system named is MRSA (NRS384 strain of USA300). As to the kind of experiment: MIC determinations for intracellular bacteria inside mouse peritoneal macrophages. The format is cell-based, Staphylococcus aureus. To be noted: Staphylococcus aureus; MRSA inside mouse peritoneal macrophages; antibiotics added 1 day after infection, survival assessed 24 hours later; read-out: Intracellular MRSA MIC.

≈ marks a conversion by molar mass, not a printed value. Where only a bound is given, the exact number is not on record here.

Consider “thio-trastuzumab HC A1118C-MP-LAFG-PABC-(piperazinoBOR)”, for which the “killing of intracellular bacteria” value in data set [1] is recorded as “no activity”.

Regarding `CN[C@H](CC(C)C)C(=O)N[C@H]1C(=O)N[C@@H](CC(N)=O)C(=O)N[C@H]2C(=O)N[C@H]3C(=O)N[C@H](C(=O)N[C@H](C(=O)O)c4cc(O)cc(O)c4-c4cc3ccc4O)[C@H](O)c3ccc(c(Cl)c3)Oc3cc2cc(c3O[C@@H]2O[C@H](CO)[C@@H](O)[C@H](O)[C@H]2O[C@H]2C[C@](C)(N)[C@H](O)[C@H](C)O2)Oc2ccc(cc2Cl)[C@H]1O` [Vancomycin], the values for the MIC in data set [2] and in data set [8] were 1 µg/mL (≈ 0.69 µM) and above 100 µg/mL, respectively. In addition, the “bacteria remained viable during the first two hours of antibiotic treatment” value in data set [3] was 90%. Moreover, the “loss in viable bacteria by 5 hours” value in data set [3] is given as 100 fold. Further, the “effect of pre-treatment on bacterial loads in kidneys” value in data set [4] was “cleared the infection in all of the mice tested”. Moreover, the “efficacy in kidneys (FIG. 11A)” value in data set [5] (AAC single dose 50 mg/Kg day 1, vancomycin 100 mg/Kg twice daily, day 4) is recorded as “failed to clear the infection”. Also, the “reduction of bacterial loads” value in data set [5] (twice-daily 100 mg/Kg, treatment initiated more than 1 day post infection) is “about 50 fold”. Further, the “intracellular bacteria in MG63 wells 1 day post infection” value in data set [6] (similar dose of free (extracellular) MRSA) amounted to 375 intracellular bacteria. The “intracellular bacteria in MG63 wells 1 day after infection” value in data set [6] (wells infected with 3×10^4 intracellular bacteria (peritoneal cells)) is 8,750 intracellular bacteria. Moreover, the “Serum Cmax” value in data set [7] is 10000 to 40000 ng/mL.
